Laboratory results published in PubChem BioAssay (NCI).
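All cell lines were grown in 96-well plates and treated with compound for 48 hours. GI50: concentration for 50% inhibition of growth. TGI is the concentration that stops growth completely.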

Columns and labels:
Assay in all cases: DTP human tumour cell line panel, 48 h
XF 498 CNS = tested on: XF 498 CNS
LXFL 529 NSCLC = tested on: LXFL 529 NSCLC
DMS 273 small cell lung = tested on: DMS 273 small cell lung
RXF-631 renal = tested on: RXF-631 renal
M19-MEL melanoma = tested on: M19-MEL melanoma
HOP-18 NSCLC = tested on: HOP-18 NSCLC
DLD-1 colon = tested on: DLD-1 colon
SNB-78 CNS = tested on: SNB-78 CNS
MDA-N = tested on: MDA-N
SN12K1 renal = tested on: SN12K1 renal

Row | SMILES | TGI (XF 498 CNS) [µM] | TGI (LXFL 529 NSCLC) [µM] | TGI (DMS 273 small cell lung) [µM] | TGI (RXF-631 renal) [µM] | TGI (M19-MEL melanoma) [µM] | TGI (HOP-18 NSCLC) [µM] | TGI (DLD-1 colon) [µM] | TGI (SNB-78 CNS) [µM] | TGI (MDA-N) [µM] | TGI (SN12K1 renal) [µM] | GI50 (LXFL 529 NSCLC) [µM] | GI50 (DMS 273 small cell lung) [µM] | GI50 (DLD-1 colon) [µM] | GI50 (HOP-18 NSCLC) [µM] | GI50 (SNB-78 CNS) [µM]
1 | C=CCNC(=O)N(CCCCC(NC(C)=O)C(=O)NCc1ccccc1)Cc1ccccc1 (stereo not given) | > 100 | > 100 | > 100 | > 100 | > 100 | > 100 |  |  |  |  |  |  |  |  | 
2 | O=C(O)C1=C(O)C(C(=O)O)C23CCCCCCCCCCC12C(C(=O)O)C(O)=C3C(=O)O (stereo not given) | > 100 | > 100 | > 100 |  | > 100 | > 100 | > 100 |  |  |  |  |  |  |  | 
3 | COC(=O)CC1C[C@H](C#N)N(C(=O)c2ccccc2)C[C@@H]1CC[N+](=O)[O-] (stereo not given in full) | > 100 | > 100 | > 100 |  | > 100 | > 100 | > 100 | > 100 |  |  |  |  |  |  | 
4 | CCN(CC)c1c(C(=O)/C=C/c2ccc(Cl)cc2)c(-c2ccccc2)nn(C)c1=O |  | 3.42 | 3.41 | 3.99 | 3.14 | 4.83 | 3.99 | 5.93 |  |  |  |  |  |  | 
5 | C=C(C)C(O)CCC1(C)C=Cc2c(c(C)cc3c2[nH]c2ccccc23)O1 (stereo not given) | 25 | 25 |  |  | 25 |  | 18.8 | 25 | 17.3 |  |  |  |  |  | 
6 | O=[N+]([O-])c1ccc(C[P+](c2ccccc2)(c2ccccc2)c2ccccc2)cc1 |  | > 100 | > 100 |  | 81.2 | > 100 | > 100 |  |  |  |  |  |  |  | 
7 | COc1cc(C(O)CCBr)c(OC)cc1C (stereo not given) |  |  |  |  |  |  |  |  | > 20.9 |  |  |  |  |  | 
8 | CCOC(=O)C12CCCC1(O)N(NC(=O)OC(C)(C)C)C(C)=C2C(=O)OC (stereo not given) | > 100 | > 100 | > 100 | > 100 | > 100 | > 100 | > 100 | > 100 |  |  |  |  |  |  | 
9 | Cc1c[n+](=O)c2ccccc2n1[O-] |  |  |  |  |  |  |  |  | > 100 |  |  |  |  |  | 
10 | COC(=O)NC(=O)c1cn(C2OC(CO)C(O)C2O)c(=O)[nH]c1=O (stereo not given) |  | > 100 |  |  | > 100 |  | > 100 | > 100 |  |  |  |  |  |  | 
11 | CC(C)Cn1cnc2c(SCc3ccc(Cl)cc3Cl)nc(N)nc21 |  |  |  |  |  |  |  |  | > 100 |  |  |  |  |  | 
12 | CCOC(=O)c1nn2c(nc1=O)sc1ccc3ccccc3c12 |  | > 100 | > 100 |  | > 100 | > 100 | > 100 | > 100 |  |  |  |  |  |  | 
13 | NC(=O)C(=O)N/N=C1\C(=O)N(c2ccc(Cl)cc2Cl)C(=O)C1C(=O)Nc1ccc(Cl)cc1Cl (stereo not given) | > 100 | > 100 | > 100 |  | > 100 | > 100 | > 100 | > 100 |  |  |  |  |  |  | 
14 | O/N=C1/C(=C/c2ccc3c(c2)OCO3)CCCC1C(NO)c1ccc2c(c1)OCO2 (stereo not given) | 62.2 | 51.4 | 47.3 |  | 62 | 42.5 | 98.8 | 87.7 |  |  |  |  |  |  | 
15 | O=C(Nc1ccc([As](=O)(O)O)cc1)Nc1cccc(Cl)c1Cl |  |  |  |  |  |  |  |  | > 100 |  |  |  |  |  | 
16 | O=C(O)CCN(CCCCN(CCC(=O)O)CCC(=O)O)CCC(=O)O | > 100 | > 100 | > 100 |  | > 100 | > 100 | > 100 |  |  |  |  |  |  |  | 
17 | CCCCCCCCCCCc1nnc(N)o1 | > 100 | > 100 | > 100 | > 100 | > 100 |  | > 100 | > 100 |  |  |  |  |  |  | 
18 | COc1ccc(/C=N/N=C(\N)NO)cc1O |  | > 100 |  |  |  | > 100 | > 100 | > 100 |  |  |  |  |  |  | 
19 | N#CC1(C#N)C2(c3ccccc3)OC(c3ccccc3)(c3cc4ccccc4cc32)C1(C#N)C#N |  | 3.14 | 32 |  |  | 17.8 | 22.3 |  | 34.4 |  |  |  |  |  | 
20 | C[C@]12CC[C@@H]3c4ccc(OC(=O)N(CCCl)CCCl)cc4CC[C@H]3[C@@H]1CC[C@@H]2O |  |  | 24.2 |  | 0.254 | 14 | 1.05 | 17.3 |  | 0.276 |  |  |  |  | 

Row | SMILES | TGI (XF 498 CNS) [µM] | TGI (LXFL 529 NSCLC) [µM] | TGI (DMS 273 small cell lung) [µM] | TGI (RXF-631 renal) [µM] | TGI (M19-MEL melanoma) [µM] | TGI (HOP-18 NSCLC) [µM] | TGI (DLD-1 colon) [µM] | TGI (SNB-78 CNS) [µM] | TGI (MDA-N) [µM] | TGI (SN12K1 renal) [µM] | GI50 (LXFL 529 NSCLC) [µM] | GI50 (DMS 273 small cell lung) [µM] | GI50 (DLD-1 colon) [µM] | GI50 (HOP-18 NSCLC) [µM] | GI50 (SNB-78 CNS) [µM]
21 | COc1cc(Br)c(C=Nc2cccc3cc(OC)c(OC)cc23)cc1OC |  | > 100 | > 100 | > 100 | > 100 | > 100 | > 100 | > 100 |  |  |  |  |  |  | 
22 | CCOc1cccc(/C=N/N=C2\C(=O)Nc3c(Cl)cc(Cl)cc32)c1O |  |  |  |  |  |  |  |  | > 100 |  |  |  |  |  | 
23 | CC1=C(C(=O)Nc2cc(=O)n(C)c(=O)n2C)C(c2ccco2)C(C(=O)Nc2cc(=O)n(C)c(=O)n2C)=C(C)N1 | > 100 | > 100 |  | > 100 | > 100 |  | > 100 | > 100 |  |  |  |  |  |  | 
24 | COc1ccc(C23C(=O)c4ccccc4N2O[C@H]2C(=O)N(c4ccccc4)C(=O)[C@H]23)cc1 (stereo not given in full) | > 100 | > 100 | > 100 | > 100 | > 100 | > 100 | > 100 | > 100 |  |  |  |  |  |  | 
25 | CSC(=Nc1nnc(-c2ccc([N+](=O)[O-])cc2)s1)SC | 43.3 | > 100 | > 100 |  | > 100 | > 71.6 | > 100 | 60.9 | > 100 |  |  |  |  |  | 
26 | Cc1nnn[n-]1.N.N.N.N.N.[Cl-].[Co+3] |  | > 100 | > 100 |  |  | > 100 | > 100 |  |  |  | > 100 | > 100 | > 100 | > 100 | 
27 | O=C1CC(O)CC(=O)C1=C(O)CCCCCCCCCCc1ccccc1 (stereo not given) | > 100 | > 100 | > 100 | > 100 | > 100 | > 100 | > 100 | > 100 |  |  |  |  |  |  | 
28 | O=C(O)CCC(=O)N1c2ccccc2CC1c1c[nH]c2ccccc12 (stereo not given) | > 100 | > 100 | > 100 |  | > 100 | > 100 |  | > 100 |  |  |  |  |  |  | 
29 | O=C1N(C2CCCCC2)CC12CCCCC2 | > 100 |  | > 100 | > 100 | > 100 | > 100 |  | > 100 |  |  |  |  |  |  | 
30 | COc1ccc(-c2cc3c(c4cc(OC)ccc24)C(=O)OC3=O)cc1 |  |  |  |  |  |  |  |  | > 100 |  |  |  |  |  | 
31 | CNC(=O)Nc1nc2ccc([N+](=O)[O-])cc2[nH]1 |  |  |  |  |  |  |  |  | > 100 |  |  |  |  |  | 
32 | CC1=C(c2ccccc2)C(c2ccccc2)=C(c2ccccc2)C2(c3ccccc3)C(=O)C(C)CN12 (stereo not given) | 82.8 | > 100 | > 100 |  | > 100 |  | > 100 |  |  |  |  |  |  |  | 
33 | N.N.N.N.N.NC(=O)c1nn[n-]n1.[Cl-].[Co+3] |  | > 100 | > 100 |  |  | > 100 | > 100 | > 100 |  |  | > 100 | > 100 | > 100 | > 100 | > 100
34 | O=C(O)CN(CC(=O)O)Cc1cc(C#Cc2ccc(C#Cc3ccccc3)cc2)cc(CN(CC(=O)O)CC(=O)O)n1 | > 100 | > 76.4 | 23.5 |  | 39.9 | > 100 | > 68.1 | > 100 | > 100 |  |  |  |  |  | 
35 | CC1(C)O[C@H]2[C@H](O)C[C@](O)(CO)C[C@H]2O1 |  | > 100 | > 100 | > 100 | > 100 |  | > 100 | > 100 |  |  |  |  |  |  | 
36 | O=C(COc1ccc(Cl)cc1)N1N=C(c2ccc(Cl)cc2)CC1(O)c1ccccc1 (stereo not given) | > 100 | > 100 | 33.1 |  | > 63.4 | > 100 | 49.5 | > 56.7 |  |  |  |  |  |  | 
37 | N.N.N.N.[Co+3].[N-]=[N+]=[N-].[N-]=[N+]=[N-].[N-]=[N+]=[N-] |  | > 100 | > 100 |  |  |  | > 100 | > 100 |  |  | > 100 | > 100 | > 100 |  | > 100
38 | CCc1ccccc1NC(=O)C1=C(C)NC(C)=C(C(=O)Nc2ccccc2CC)C1c1ccccc1Cl | > 100 | > 100 |  |  | > 100 |  | > 100 | > 100 |  |  |  |  |  |  | 
39 | C=C(C)[C@@H]1CC[C@]2(C)CC[C@]3(C)[C@H](CC[C@@H]4[C@@]5(C)CC[C@H](O)C(C)(C)[C@@H]5CC[C@]43C)[C@@H]12 | > 100 | > 100 | > 100 |  | > 100 |  | > 100 |  | > 100 |  |  |  |  |  | 
40 | C/C(=N\NC(=S)N1CC2CCC(CC2)C1)c1nccs1 | 13.8 | 15.8 | 4.93 | 17.6 | 1.8 | 7.95 | 17.3 | 41.8 |  | 15.2 |  |  |  |  | 
